Measurements as given in ChEMBL document CHEMBL1156589, “2-Arylpyrimidines: novel CRF-1 receptor antagonists” (Bioorg Med Chem Lett, 2008).
Values after ≈ are worked out from the molar mass of the structure shown.

Key:
[1] = biological target: T1, Corticotropin-releasing factor receptor 1 (Homo sapiens, UniProt P34998); assay: biochemical; assay type: cell-based, IMR-32
T1 sequence (P34998 whole entry): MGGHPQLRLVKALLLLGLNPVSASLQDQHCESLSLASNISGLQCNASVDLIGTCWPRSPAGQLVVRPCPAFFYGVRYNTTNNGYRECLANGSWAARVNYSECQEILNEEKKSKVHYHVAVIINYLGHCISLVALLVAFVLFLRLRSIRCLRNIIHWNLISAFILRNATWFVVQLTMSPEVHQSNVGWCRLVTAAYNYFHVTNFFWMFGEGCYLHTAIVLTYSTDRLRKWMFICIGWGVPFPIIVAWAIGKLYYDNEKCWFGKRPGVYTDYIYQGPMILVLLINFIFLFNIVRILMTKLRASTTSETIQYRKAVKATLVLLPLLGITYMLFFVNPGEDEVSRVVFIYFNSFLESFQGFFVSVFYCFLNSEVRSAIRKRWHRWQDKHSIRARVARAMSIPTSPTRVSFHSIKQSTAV
Description: Displacement of [125I]sauvagine from human CRF1 receptor expressed in IMR32 cells

[2] = biological target: T1, Corticotropin-releasing factor receptor 1; assay: Antagonist activity at CRF1 receptor expressed in mouse AtT20 cells assessed as inhibition of sauvagine-stimulated cAMP accumulation; assay type: functional, cell-based
[3] = Cmax in Sprague-Dawley rat at 20 mg/kg, po and 3 mg/kg, iv; assay type: ADME, organism-based; details: in vivo
[4] = Volume of distribution in Sprague-Dawley rat at 20 mg/kg, po and 3 mg/kg, iv; assay type: ADME, organism-based; details: in vivo
[5] = Solubility in 0.1 N hydrochloric acid; assay type: physicochemical
[6] = Clearance in Sprague-Dawley rat at 20 mg/kg, po and 3 mg/kg, iv; assay type: ADME, organism-based; details: in vivo
[7] = Tmax in Sprague-Dawley rat at 20 mg/kg, po and 3 mg/kg, iv; assay type: ADME, organism-based; details: in vivo
[8] = Oral bioavailability in Sprague-Dawley rat at 20 mg/kg; assay type: ADME, organism-based; details: in vivo
[9] = Half life in Sprague-Dawley rat at 20 mg/kg, po and 3 mg/kg, iv; assay type: ADME, organism-based; details: in vivo

CCC(CC)c1cc(C)nn2c(-c3sc(N4CCOCC4)nc3Cl)c(C)nc12
Ki [1]: 0.2 nM

CCCN(CCC)c1c(C)nc(-c2c(OC)cccc2OC)nc1OC
Ki [1]: 277 nM

CCCN(CCC)c1c(C)nc(-c2c(C)cc(C)cc2OC)nc1OCC
Ki [1]: 16 nM

CCCc1nc(-c2c(C)cc(C)cc2OC)nc(OC)c1N(CCC)CCC
Ki [1]: 76 nM

CCCN(CCC)c1c(C)nc(-c2c(C)cc(C)cc2OC)nc1OC
Ki [1]: 15 nM

CCCN(CCC)c1c(C)nc(-c2c(C)cc(C)cc2OC)nc1OCCO
Ki [1]: 1610 nM

COc1cc(C)cc(C)c1-c1nc(C)c(NCC(C)(C)C)c(OC)n1
Ki [1]: > 10000 nM

CCCN(CCC)c1c(CC(C)O)nc(-c2c(C)cc(C)cc2OC)nc1OC (stereo not given)
Ki [1]: 1150 nM

CCC(CC)Oc1c(C)nc(-c2c(C)cc(C)cc2OC)nc1OC
Ki [1]: 8 nM | IC50 [2]: 19 nM

CCCOc1nc(-c2c(C)cc(C)cc2OC)nc(C)c1N(CCC)CCC
Ki [1]: 53 nM

CCCCN(CC)c1nc(C)nc2c1c(C)cn2-c1c(C)cc(C)cc1C [CP-154526]
Ki [1]: 3 nM

CCCN(CCC)c1c(CC)nc(-c2c(C)cc(C)cc2OC)nc1OC
Ki [1]: 22 nM

CCC(CC)Oc1c(C)nc(-c2c(OC)cc(C(F)F)cc2OC)nc1OC
Ki [1]: 9 nM

CCCN(CCC)c1c(C)nc(-c2c(C)cc(C)cc2C)nc1OC
Ki [1]: 354 nM

CCC(CC)Oc1c(C)nc(-c2c(OC)cc(Cl)cc2OC)nc1OC
Cmax [3]: 194 ng/mL | Vd [4]: 14 L/kg | solubility [5]: 28 µg/mL (≈ 73.5 µM) | clearance [6]: 13.6 mL/min/kg | Ki [1]: 9 nM | IC50 [2]: 7 nM | Tmax [7]: 108 min | bioavailability [8]: 6% | half-life [9]: 498 min

CCCN(CCC)c1c(C)nc(-c2ccc(OC)cc2OC)nc1OC
Ki [1]: 507 nM

CCCN(CCC)c1c(C)nc(-c2ccc(Cl)cc2Cl)nc1OC
Ki [1]: > 10000 nM

CCCN(CCC)c1c(C)nc(-c2c(OC)cc(C(F)(F)F)cc2C(F)(F)F)nc1OC
Ki [1]: 6 nM

CCCN(CCC)c1cnc(-c2c(C)cc(C)cc2OC)nc1C
Ki [1]: 561 nM

CCC(CC)Nc1c(C)nc(-c2c(C)cc(C)cc2OC)nc1OC
Ki [1]: 94 nM

CCCN(CCC)c1c(C)nc(-c2c(C)cc(C)cc2OC)nc1Cl
Ki [1]: 33 nM

CCCN(CCC)c1c(C)nc(-c2c(C)cc(C)cc2OC)nc1OC(C)C
Ki [1]: > 5000 nM

CCCNc1c(C)nc(-c2c(C)cc(C)cc2OC)nc1OC
Ki [1]: > 10000 nM

CCCN(CCC)c1c(C)nc(-c2c(OC)cc(Cl)cc2OC)nc1OC
Cmax [3]: 210 ng/mL | Vd [4]: 12 L/kg | solubility [5]: 27 µg/mL (≈ 68.5 µM) | clearance [6]: 21 mL/min/kg | Ki [1]: 2 nM | IC50 [2]: 1 nM | Tmax [7]: 36 min | bioavailability [8]: 2% | half-life [9]: 168 min

CCCN(CCC)c1c(C)nc(-c2c(C)cc(C)cc2OC)c2ccccc12
Cmax [3]: 387 ng/mL | Vd [4]: 13 L/kg | solubility [5]: < 0.5 µg/mL | clearance [6]: 14.5 mL/min/kg | IC50 [2]: 12 nM | Tmax [7]: 42 min | bioavailability [8]: 5% | half-life [9]: 324 min

CCCN(CCC)c1c(CC(C)(C)O)nc(-c2c(C)cc(C)cc2OC)nc1OC
Ki [1]: 604 nM
